Data as given in ChEMBL document CHEMBL1134059, “Synthesis and antifungal activities of novel 1,3-beta-D-glucan synthase inhibitors. Part 2” (Bioorg Med Chem Lett, 2001).
≈ marks a conversion by molar mass, not a printed value. Numbered stars: 1 amine (or outer) side, 2 acyl side, 3 side chain; on linkers, the order of the positions; unused ones are H or OH. Bridge positions count the residues as written; N and C are the ends. Square brackets hold non-standard residues; d marks the D form. Peptide text beside a SMILES is read from it. * marks the point of attachment. pTerphenylCO(4''-OnC5H11) = CCCCCOc1ccc(-c2ccc(-c3ccc(C(=O)*)cc3)cc2)cc1; Orn(4R-OH,5R-OH) = O=C([C@H](C[C@@H](O)[C@@H](O)N[*:3])N[*:1])[*:2]; hTyr(3S-OH,4S-OH) = N[C@H](C(=O)O)[C@H](O)[C@@H](O)c1ccc(O)cc1; Pro(3S-OH,4S-Me) = C[C@H]1CN[C@H](C(=O)O)[C@H]1O; Gln(3R-OH) = NC(=O)C[C@@H](O)[C@H](N)C(=O)O; X1 = CCCCCCCCCCCCC[C@H](CC(=O)[*:1])O[*:2]; Pro(3S-OH) = O=C(O)[C@H]1NCC[C@@H]1O; d(aThr) = C[C@@H](O)[C@@H](N)C(=O)O; Hyp = O=C(O)[C@@H]1C[C@@H](O)CN1; Orn = NCCC[C@H](N)C(=O)O

Experiments:
[1] = tested on: Candida albicans; assay: In vitro antifungal activity against Candida albicans CY1002; type: functional, organism-based
[2] = tested on: Candida albicans; assay: In vitro antifungal activity against Candida albicans CY1002 using 80 percent serum; type: functional, organism-based
[3] = tested on: Mus musculus; assay: In vivo efficacy against Aspergillus fumigatus CF1083 1E4 conidia/g for pulmonary aspergillosis in mice after iv treatment on day 14; type: functional; settings: 336 h
[4] = tested on: Mus musculus; assay: In vivo efficacy against Candida albicans CY1002 5E6 cells for systemic candidiasis in mice after iv treatment on day 7; type: functional; settings: CY1002 5E6, iv, 168 h
[5] = species: Mus musculus; assay: Hepatotoxicity using inclusion-body formation test in hepatocytes of mice; type: functional, Hepatocyte
[6] = target: Beta-1,3-glucan synthase (Candida albicans, UniProt O13428); assay: In vitro inhibitory activity against Beta glucan synthase
[7] = tested on: Aspergillus fumigatus; assay: Antifungal activity against Aspergillus fumigatus MTU06002; type: functional
[8] = tested on: Pichia kudriavzevii; assay: Antifungal activity against Candida krusei ATCC 20579; type: functional
[9] = tested on: Candida albicans; assay: Antifungal activity against Candida albicans KB fluconazole resistant strain.; type: functional
[10] = tested on: Candida albicans; assay: Antifungal activity against Candida albicans ATCC 48130; type: functional
[11] = tested on: Candida tropicalis; assay: Antifungal activity against Candida tropicalis ATCC 13803; type: functional
[12] = tested on: Nakaseomyces glabratus; assay: Antifungal activity against Candida glabrata ATCC 2001; type: functional
[13] = tested on: Lomentospora prolificans; assay: Antifungal activity against Scedosporium prolificans ATCC 20054; type: functional
[14] = tested on: Scedosporium boydii; assay: Antifungal activity against Scedosporium […] IFM40731N.; type: functional

Chain of Beta-1,3-glucan synthase (O13428 whole entry): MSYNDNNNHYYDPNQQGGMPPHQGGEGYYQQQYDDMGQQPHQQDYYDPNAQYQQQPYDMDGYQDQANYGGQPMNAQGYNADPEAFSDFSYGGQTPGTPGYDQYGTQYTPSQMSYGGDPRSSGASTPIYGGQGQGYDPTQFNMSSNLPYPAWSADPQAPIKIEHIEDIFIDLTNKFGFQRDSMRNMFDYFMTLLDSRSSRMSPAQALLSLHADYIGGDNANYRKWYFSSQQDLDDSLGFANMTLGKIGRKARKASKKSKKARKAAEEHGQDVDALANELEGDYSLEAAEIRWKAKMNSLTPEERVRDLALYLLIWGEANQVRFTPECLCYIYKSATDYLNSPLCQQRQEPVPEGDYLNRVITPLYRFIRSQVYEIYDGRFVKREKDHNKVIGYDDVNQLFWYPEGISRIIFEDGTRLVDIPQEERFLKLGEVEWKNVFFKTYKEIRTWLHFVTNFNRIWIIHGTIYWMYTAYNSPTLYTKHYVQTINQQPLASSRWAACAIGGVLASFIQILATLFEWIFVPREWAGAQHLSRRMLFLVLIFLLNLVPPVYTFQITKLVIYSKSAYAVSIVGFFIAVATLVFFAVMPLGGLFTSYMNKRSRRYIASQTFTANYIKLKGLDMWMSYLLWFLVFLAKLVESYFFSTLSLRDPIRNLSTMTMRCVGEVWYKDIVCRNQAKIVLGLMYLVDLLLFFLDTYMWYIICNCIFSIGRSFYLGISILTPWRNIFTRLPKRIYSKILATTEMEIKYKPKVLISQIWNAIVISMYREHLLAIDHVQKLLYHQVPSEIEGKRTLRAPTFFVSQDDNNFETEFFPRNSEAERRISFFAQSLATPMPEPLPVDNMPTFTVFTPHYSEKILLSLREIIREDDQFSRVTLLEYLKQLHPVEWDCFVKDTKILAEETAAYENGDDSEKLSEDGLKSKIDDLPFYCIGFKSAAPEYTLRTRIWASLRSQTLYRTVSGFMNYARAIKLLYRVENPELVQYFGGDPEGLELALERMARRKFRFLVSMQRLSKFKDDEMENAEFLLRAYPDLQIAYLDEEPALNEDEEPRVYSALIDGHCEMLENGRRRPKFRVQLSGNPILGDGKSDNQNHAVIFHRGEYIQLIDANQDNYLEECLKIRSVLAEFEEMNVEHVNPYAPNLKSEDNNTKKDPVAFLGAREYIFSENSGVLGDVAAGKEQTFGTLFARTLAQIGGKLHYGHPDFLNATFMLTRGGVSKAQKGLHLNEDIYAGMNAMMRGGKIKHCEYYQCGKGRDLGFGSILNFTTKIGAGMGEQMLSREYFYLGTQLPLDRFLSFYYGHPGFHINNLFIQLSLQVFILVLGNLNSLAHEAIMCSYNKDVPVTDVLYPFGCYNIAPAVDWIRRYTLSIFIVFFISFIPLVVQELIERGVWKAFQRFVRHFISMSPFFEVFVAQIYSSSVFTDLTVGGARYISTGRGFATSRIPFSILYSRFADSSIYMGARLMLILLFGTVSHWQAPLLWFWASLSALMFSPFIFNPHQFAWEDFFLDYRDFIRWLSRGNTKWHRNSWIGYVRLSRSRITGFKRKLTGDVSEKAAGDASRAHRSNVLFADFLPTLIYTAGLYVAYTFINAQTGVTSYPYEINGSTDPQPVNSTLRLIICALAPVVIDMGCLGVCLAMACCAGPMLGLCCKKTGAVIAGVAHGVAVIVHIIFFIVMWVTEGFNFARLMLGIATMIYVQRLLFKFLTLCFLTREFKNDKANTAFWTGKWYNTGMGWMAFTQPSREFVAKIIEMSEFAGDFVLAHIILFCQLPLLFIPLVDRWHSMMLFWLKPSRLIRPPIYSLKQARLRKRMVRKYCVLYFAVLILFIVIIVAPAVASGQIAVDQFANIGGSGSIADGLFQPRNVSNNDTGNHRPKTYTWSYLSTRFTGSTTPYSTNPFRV

SMILES: CCCCCCCCCCCCC[C@@H]1CC(=O)N[C@H]([C@@H](C)O)C(=O)N[C@H](C)C(=O)N[C@@H](Cc2ccc(O)cc2)C(=O)N[C@@H](C(C)C)C(=O)N2C[C@H](O)C[C@H]2C(=O)N[C@H]([C@@H](C)O)C(=O)N[C@@H]([C@@H](C)O)C(=O)N2CC[C@H](O)[C@H]2C(=O)N[C@@H]([C@H](O)CC(N)=O)C(=O)NCC(=O)N[C@H]([C@@H](C)O)C(=O)N[C@@H](CCCN(CCN)CCN)C(=O)O1
- IC50 [1]: 0.1 µg/mL (≈ 0.0617 µM)
- IC50 [2]: 0.42 µg/mL (≈ 0.259 µM)
- ED50 [3]: 13.3 mg/kg
- ED50 [4]: 0.05 mg/kg
- Observed at [5]: 10 µg/mL
- IC50 [6]: 1.4 nM

SMILES: CCCCCCCCCCCCC[C@@H]1CC(=O)N[C@H]([C@@H](C)O)C(=O)N[C@H](C)C(=O)N[C@@H](Cc2ccc(O)cc2)C(=O)N[C@@H](C(C)C)C(=O)N2C[C@H](O)C[C@H]2C(=O)N[C@H]([C@@H](C)O)C(=O)N[C@@H]([C@@H](C)O)C(=O)N2CC[C@H](O)[C@H]2C(=O)N[C@@H]([C@H](O)CC(N)=O)C(=O)NCC(=O)N[C@H]([C@@H](C)O)C(=O)N[C@@H](CCCNC(=O)[C@H](N)CCCN)C(=O)O1
- IC50 [1]: 0.12 µg/mL (≈ 0.0728 µM)
- IC50 [2]: 0.33 µg/mL (≈ 0.2 µM)
- ED50 [4]: 0.1 mg/kg
- Observed at [5]: 30 µg/mL
- IC50 [6]: 3.6 nM

SMILES: CCCCCOc1ccc(-c2ccc(-c3ccc(C(=O)N[C@@H]4C[C@@H](O)[C@@H](O)NC(=O)C5[C@@H](OC)[C@@H](OC)CN5C(=O)[C@H]([C@@H](C)O)NC(=O)[C@H]([C@H](O)[C@@H](O)c5ccc(O)cc5)NC(=O)[C@@H]5C[C@@H](O)CN5C(=O)[C@H]([C@@H](C)O)NC4=O)cc3)cc2)cc1 (stereo partly specified)
- IC50 [6]: 18 nM

SMILES: CCCCCCCCCCCCC[C@@H]1CC(=O)N[C@H]([C@@H](C)O)C(=O)N[C@H](C)C(=O)N[C@@H](Cc2ccc(O)cc2)C(=O)N[C@@H](C(C)C)C(=O)N2C[C@H](O)C[C@H]2C(=O)N[C@H]([C@@H](C)O)C(=O)N[C@@H]([C@@H](C)O)C(=O)N2CC[C@H](O)[C@H]2C(=O)N[C@@H]([C@H](O)CC(N)=O)C(=O)NCC(=O)N[C@H]([C@@H](C)O)C(=O)N[C@@H](CCCN(CCCN)C(=O)[C@H](CCCN)N(CCN)CCN)C(=O)O1
- MIC [7]: 0.37 µg/mL (≈ 0.207 µM)
- MIC [8]: 0.31 µg/mL (≈ 0.173 µM)
- MIC [9]: 0.35 µg/mL (≈ 0.195 µM)
- MIC [10]: 0.41 µg/mL (≈ 0.229 µM)
- IC50 [1]: 0.45 µg/mL (≈ 0.251 µM)
- IC50 [2]: 0.31 µg/mL (≈ 0.173 µM)
- MIC [11]: 0.63 µg/mL (≈ 0.352 µM)
- MIC [12]: 1 µg/mL (≈ 0.558 µM)
- ED50 [3]: 8.6 mg/kg
- ED50 [4]: 0.08 mg/kg
- Observed at [5]: 100 µg/mL
- MIC [13]: 0.38 µg/mL (≈ 0.212 µM)
- MIC [14]: 0.35 µg/mL (≈ 0.195 µM)
- IC50 [6]: 0.28 nM

SMILES: CCCCCOc1ccc(-c2ccc(-c3ccc(C(=O)N[C@H]4C[C@@H](O)[C@@H](O)NC(=O)[C@@H]5[C@@H](O)[C@@H](C)CN5C(=O)[C@H]([C@@H](C)O)NC(=O)[C@H]([C@H](O)[C@@H](O)c5ccc(O)cc5)NC(=O)[C@@H]5C[C@@H](O)CN5C(=O)[C@H]([C@@H](C)O)NC4=O)cc3)cc2)cc1 ({pTerphenylCO(4''-OnC5H11)}-[Orn(4R-OH,5R-OH)]T[Hyp][hTyr(3S-OH,4S-OH)]T[Pro(3S-OH,4S-Me)]; lactam 1-C) [listing 1 of 2 here]
- IC50 [1]: 0.014 µg/mL (≈ 0.0123 µM)
- IC50 [2]: 0.55 µg/mL (≈ 0.482 µM)

SMILES: CCCCCOc1ccc(-c2ccc(-c3ccc(C(=O)N[C@H]4C[C@@H](O)[C@@H](O)NC(=O)[C@@H]5[C@@H](O)[C@@H](C)CN5C(=O)[C@H]([C@@H](C)O)NC(=O)[C@H]([C@H](O)[C@@H](O)c5ccc(O)cc5)NC(=O)[C@@H]5C[C@@H](O)CN5C(=O)[C@H]([C@@H](C)O)NC4=O)cc3)cc2)cc1 ({pTerphenylCO(4''-OnC5H11)}-[Orn(4R-OH,5R-OH)]T[Hyp][hTyr(3S-OH,4S-OH)]T[Pro(3S-OH,4S-Me)]; lactam 1-C) [listing 2 of 2 here]
- ED50 [4]: 0.22 mg/kg
- Observed at [5]: 1 µg/mL

SMILES: CCCCCCCCCCCCC[C@@H]1CC(=O)N[C@H]([C@@H](C)O)C(=O)N[C@H](C)C(=O)N[C@@H](Cc2ccc(O)cc2)C(=O)N[C@@H](C(C)C)C(=O)N2C[C@H](O)C[C@H]2C(=O)N[C@H]([C@@H](C)O)C(=O)N[C@@H]([C@@H](C)O)C(=O)N2CC[C@H](O)[C@H]2C(=O)N[C@@H]([C@H](O)CC(N)=O)C(=O)NCC(=O)N[C@H]([C@@H](C)O)C(=O)N[C@@H](CCCN)C(=O)O1 [FR-901469] ([d(aThr)][dA]YV[Hyp][d(aThr)]T[Pro(3S-OH)][Gln(3R-OH)]G[d(aThr)][Orn]; linker N-C via X1)
- IC50 [1]: 0.07 µg/mL (≈ 0.0456 µM)
- IC50 [2]: 0.54 µg/mL (≈ 0.352 µM)
- ED50 [3]: > 15 mg/kg
- ED50 [4]: 0.22 mg/kg
- Observed at [5]: 10 µg/mL
- IC50 [6]: 8.5 nM
